Laboratory results from the supplement of paper PMC10307832.

Columns and labels:
Experiment in all cases: relative viability (nuclei count vs DMSO), 5 days (fraction); higher = more cells survive
Carboplatin + Navitoclax = compound: C1CC(C1)(C(=O)O)C(=O)O.[NH2-].[NH2-].[Pt+2] [Carboplatin] + CC1(C)CCC(c2ccc(Cl)cc2)=C(CN2CCN(c3ccc(C(=O)NS(=O)(=O)c4ccc(N[C@H](CCN5CCOCC5)CSc5ccccc5)c(S(=O)(=O)C(F)(F)F)c4)cc3)CC2)C1 [Navitoclax] (partner 0.5 µM)
How it was run: (§1)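 Lung cancer cell lines in 1536-well plates got either a single drug or a fixed anchor-drug dose together with five library-drug doses (not always all listed) in √10 steps, by pin tool, on the day after seeding. Nuclei were counted after 5 days, and relative viability is the treated-to-vehicle ratio of nuclei counts. Values are medians of duplicate plates.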

GSK126 + Vorinostat = compound: CC[C@H](C)N1C=C(C2=C(C=C(C=C21)C3=CN=C(C=C3)N4CCNCC4)C(=O)NCC5=C(C=C(NC5=O)C)C)C [GSK126] + O=C(CCCCCCC(=O)Nc1ccccc1)NO [Vorinostat] (partner 1 µM)
How it was run: as §1

Carboplatin + Vorinostat = compound: C1CC(C1)(C(=O)O)C(=O)O.[NH2-].[NH2-].[Pt+2] [Carboplatin] + O=C(CCCCCCC(=O)Nc1ccccc1)NO [Vorinostat] (partner 1 µM)
How it was run: as §1

| Cell Line | relative viability (Carboplatin + Navitoclax; first compound 0.08 µM) | relative viability (Carboplatin + Navitoclax; first compound 0.253 µM) | relative viability (Carboplatin + Navitoclax; first compound 0.8 µM) | relative viability (Carboplatin + Navitoclax; first compound 2.53 µM) | relative viability (Carboplatin + Navitoclax; first compound 8 µM) | relative viability (GSK126 + Vorinostat; first compound 0.08 µM) | relative viability (GSK126 + Vorinostat; first compound 0.253 µM) | relative viability (GSK126 + Vorinostat; first compound 0.8 µM) | relative viability (GSK126 + Vorinostat; first compound 2.53 µM) | relative viability (GSK126 + Vorinostat; first compound 8 µM) | relative viability (Carboplatin + Vorinostat; first compound 0.08 µM) | relative viability (Carboplatin + Vorinostat; first compound 0.253 µM) | relative viability (Carboplatin + Vorinostat; first compound 0.8 µM) | relative viability (Carboplatin + Vorinostat; first compound 2.53 µM) | relative viability (Carboplatin + Vorinostat; first compound 8 µM) |
| --- | --- | --- | --- | --- | --- | --- | --- | --- | --- | --- | --- | --- | --- | --- | --- |
| NCI-H520 | 1.16 | 1.09 | 0.961 | 1.02 | 0.857 | 0.761 | 0.739 | 0.656 | 0.745 | 0.87 | 0.668 | 0.745 | 0.837 | 0.775 | 0.395 |
| NCI-H522 | – | – | – | – | – | 0.888 | 0.887 | 0.954 | 1.04 | 0.92 | 0.882 | 0.904 | 0.944 | 0.968 | 0.669 |
| NCI-H596 | 1 | 0.952 | 0.803 | 0.74 | 0.695 | 0.613 | 0.55 | 0.746 | 0.577 | 0.502 | 0.669 | 0.654 | 0.509 | 0.368 | 0.467 |
| NCI-H647 | 1.18 | 1.17 | 1.08 | 1.09 | 0.784 | 0.724 | 0.61 | 0.614 | 0.592 | 0.687 | 0.39 | 0.493 | 0.609 | 0.646 | 0.175 |
| NCI-H650 | – | – | – | – | – | 0.482 | 0.412 | 0.411 | 0.403 | 0.487 | 0.504 | 0.457 | 0.503 | 0.366 | 0.275 |
| NCI-H661 | – | – | – | – | – | 0.779 | 0.746 | 0.734 | 0.716 | 0.69 | 0.82 | 0.785 | 0.733 | 0.777 | 0.622 |
| NCI-H727 | 0.487 | 0.393 | 0.426 | 0.441 | 0.324 | 1.45 | 1.16 | 1.28 | 1.1 | 1.19 | 1.38 | 1.15 | 1.17 | 1.03 | 0.831 |
| NCI-H838 | 1.22 | 1.08 | 1.16 | 1.11 | 1.06 | 0.747 | 0.688 | 0.659 | 0.638 | 0.69 | 0.733 | 0.705 | 0.728 | 0.626 | 0.608 |
| NCI-H1299 | 1.09 | 1.02 | 1.02 | 1.01 | 0.964 | – | – | – | – | – | – | – | – | – | – |
| NCI-H1355 | 1.02 | 1.01 | 0.853 | 0.912 | 0.921 | 0.635 | 0.612 | 0.667 | 0.602 | 0.657 | 0.745 | 0.673 | 0.648 | 0.655 | 0.559 |
| NCI-H1648 | – | – | – | – | – | 0.496 | 0.401 | 0.467 | 0.5 | 0.548 | 0.527 | 0.544 | 0.434 | 0.351 | 0.357 |
| NCI-H1703 | 1.31 | 1.2 | 1.11 | 1.07 | 1.49 | – | – | – | – | – | – | – | – | – | – |
| NCI-H1792 | 0.887 | 0.682 | 0.667 | 0.618 | 0.567 | – | – | – | – | – | – | – | – | – | – |
| NCI-H2342 | – | – | – | – | – | 0.82 | 0.753 | 0.74 | 0.725 | 0.857 | 0.751 | 0.788 | 0.828 | 0.865 | 0.744 |
| SW 900 | – | – | – | – | – | 0.421 | 0.546 | 0.432 | 0.39 | 0.566 | 0.476 | 0.522 | 0.501 | 0.528 | 0.519 |
